Data: PubChem BioAssay AID344 (DTP/NCI, 2004)
Several values for one entry are separate records, joined by “and”; a condition that tells them apart may be missing. Equal entries are not always repeated. Toxic doses and inconclusive results are not listed. The calls were made as follows: active = survival T/C of 150% or more; inactive = T/C below 125% in these data.

Tested on: mice, LPC-1 plasma cell tumor ip, median survival T/C
Assay: NCI In Vivo Anticancer Drug Screen. Data for tumor model Lieberman Plasma Cell No. 1 (LPC-1) (intraperitoneal) in unknown mice
Details: endpoint: median survival time, schedule: Q01DX028 (sc), higher = longer survival
Method: The antitumor activity of compounds was measured in mice bearing transplantable tumors. Survival or tumor size were measured and the results are expressed as the measurement made in the treated group (T) divided by the measurement made in the vehicle treated control group (C). The tumor model used in this assay is Lieberman Plasma Cell No. 1 (LPC-1) (intraperitoneal) in unknown mice

Measured: T/C

CS(=O)(=O)OCCN(CCOS(C)(=O)=O)c1ccc(C=O)cc1
inactive: dose: 40.0 mg/kg/injection, vehicle: saline 122 % of control
active: dose: 3.0 mg/kg/injection, vehicle: saline 160 % of control | dose: 5.0 mg/kg/injection, vehicle: saline 166 % of control and 192 % of control | dose: 8.3 mg/kg/injection, vehicle: saline 226 % of control | dose: 10.0 mg/kg/injection, vehicle: saline 202 % of control | dose: 14.0 mg/kg/injection, vehicle: saline 250 % of control | dose: 20.0 mg/kg/injection, vehicle: saline 261 % of control

CC(=O)[C@H]1CC[C@H]2[C@@H]3C[C@H](C)C4=CC(=O)CC[C@]4(C)[C@H]3C(=O)C[C@]12C
inactive: dose: 108.0 mg/kg/injection, vehicle: carboxymethylcellulose (CMC) 102 % of control | dose: 180.0 mg/kg/injection, vehicle: carboxymethylcellulose (CMC) 100 % of control | dose: 300.0 mg/kg/injection, vehicle: carboxymethylcellulose (CMC) 97 % of control | dose: 500.0 mg/kg/injection, vehicle: carboxymethylcellulose (CMC) 97 % of control

C[C@]12C=CC(=O)C=C1CC[C@@H]1[C@@H]2C(=O)C[C@@]2(C)[C@H]1CC[C@]2(O)C(=O)CO
inactive: dose: 16.0 mg/kg/injection, vehicle: water 86 % of control | dose: 32.0 mg/kg/injection, vehicle: water 86 % of control | dose: 50.0 mg/kg/injection, vehicle: water 105 % of control | dose: 128.0 mg/kg/injection, vehicle: water 91 % of control | dose: 200.0 mg/kg/injection, vehicle: water 92 % of control
